How the values were obtained:
Assay type in all cases: in vivo
[1] = tested on: key weeds such as Digitaria sanguinalis, Leptochloa chinensis; experiment: Comparison experiment (post-emergence, Tables 4-7), herbicidal activity on weeds not listed separately
Source text: The above growth control rates are fresh weight control rates.
Experiment on weeding effect in post-emergence stage: monocotyledonous and dicotyledonous weed seeds (Descurainia sophia, Capsella bursa-pastoris, Galium aparine, Stellaria media, Lithospermum arvense, Rorippa indica, Alopecurus aequalis, Beckmannia syzigachne, Sclerochloa dura, Phleum paniculatum, Bromus japonicus, Aegilops tauschii, Phalaris arundinacea, Amaranthus retroflexus, Chenopodiaceae, Commelina communis, Sonchus arvensis, convolvulus arvensis, Cirsium setosum, Solanum nigrum, Acalypha australis, Digitaria sanguinalis, Echinochloa crusgalli, Setaria viridis, Setaria glauca, Leptochloa chinensis, Monochoria vaginalis, Sagittaria trifolia, Scirpus juncoides, Cyperus rotundus, Cyperus iria, Cyperus difformis, Fimbristylis, Portulaca oleracea, Xanthium sibiricum, Pharbitis nil) and major crop seeds (wheat, corn, rice, soybean, cotton, oilseed rape, millet, sorghum, potato, sesame, ricinus) were placed in plastic pots filled with soil, then covered with 0.5-2 cm of soil, allowed to grow in a good greenhouse environment. After 2 weeks of sowing, the test plants were treated in the 2 leaf stage. The tested compounds of the present invention were respectively dissolved in acetone, then added with Tween 80 and 1.5 liter/ha of emulsifiable concentrate of methyl oleate as synergist, diluted with a certain amount of water to obtain a solution with a certain concentration, and sprayed with a spray tower onto the plants. After the application, the plants were cultured for 15 days in the greenhouse, and then the experimental results of the weeding were counted. The doses of the used compounds were 500, 250, 125, 60, 30, 15 g/ha, and the averages were obtained by repeating for three times.
If there is no clear marker, the post-seedling test conditions are the same as above, and the experimental results are shown in Tables 4-7.

Amaranthus retroflexus = experiment: Weeding effect in post-emergence stage; details: 250 g/ha; 2 leaf stage; 15 days after application; fresh weight control rate
How it was run: (§1)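 Greenhouse pot-grown weeds were sprayed at the 2-leaf stage, 2 weeks after sowing, with compound in acetone/Tween 80 plus 1.5 L/ha methyl oleate EC, at 500, 250, 125, 60, 30 or 15 g/ha. Fresh-weight growth control was scored 15 days later on a 0–5 scale, mean of three repeats.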

Echinochloa crusgali = experiment: Weeding effect in post-emergence stage; details: 250 g/ha; 2 leaf stage; 15 days after application; fresh weight control rate
How it was run: as §1

Digitaria sanguinalis = experiment: Weeding effect in post-emergence stage; details: 250 g/ha; 2 leaf stage; 15 days after application; fresh weight control rate
How it was run: as §1

Abutilon theophrasti = experiment: Weeding effect in post-emergence stage; details: 250 g/ha; 2 leaf stage; 15 days after application; fresh weight control rate
How it was run: as §1

Setaria viridis = experiment: Weeding effect in post-emergence stage; details: 250 g/ha; 2 leaf stage; 15 days after application; fresh weight control rate
How it was run: as §1

[2] = doses of 125, 60, 30, 15 g/ha, X replaced by other five membered rings

Compound | herbicidal activity and/or crop safety compared with the corresponding racemate or S configuration [1, 2] | weeding effect in post-emergence stage, activity level (growth control rate), Amaranthus retroflexus (Amaranthus retroflexus) | weeding effect in post-emergence stage, activity level (growth control rate), Echinochloa crusgali (Echinochloa crusgali) | herbicidal activity and/or crop safety compared with the corresponding racemate or S configuration ([1]; no dose stated) | weeding effect in post-emergence stage, activity level (growth control rate), Digitaria sanguinalis (Digitaria sanguinalis) | weeding effect in post-emergence stage, activity level (growth control rate), Abutilon theophrasti (Abutilon theophrasti) | weeding effect in post-emergence stage, activity level (growth control rate), Setaria viridis (Setaria viridis)
CCC[S@@+]([O-])c1c(C(F)(F)F)ccc(C(=O)Nc2nnnn2CC)c1F [Compound 382] | better herbicidal activity and/or crop safety | 5 (Level 5: growth control rate is above 85%) | 5 (Level 5: growth control rate is above 85%) |  |  |  | 
COC(=O)C[S@@+]([O-])c1c(C(F)(F)F)ccc(C(=O)Nc2nnc(C)o2)c1OC [Compound 353] |  | 5 (Level 5: growth control rate is above 85%) | 5 (Level 5: growth control rate is above 85%) | better herbicidal activity and/or crop safety |  |  | 
CCC[S@@+]([O-])c1c(C(F)F)ccc(C(=O)Nc2nnnn2C)c1Cl [Compound 618] | better herbicidal activity and/or crop safety | 5 (Level 5: growth control rate is above 85%) | 5 (Level 5: growth control rate is above 85%) |  | 5 (Level 5: growth control rate is above 85%) |  | 
CCC[S@@+]([O-])c1c(C(F)F)ccc(C(=O)Nc2nnnn2C)c1OC [Compound 866] |  | 5 (Level 5: growth control rate is above 85%) | 5 (Level 5: growth control rate is above 85%) |  | 5 (Level 5: growth control rate is above 85%) | 5 (Level 5: growth control rate is above 85%) | 5 (Level 5: growth control rate is above 85%)
COc1c(C(=O)Nc2nnc(C)o2)ccc(C(F)(F)F)c1[S@+]([O-])CC(F)F [Compound 323] |  | 5 (Level 5: growth control rate is above 85%) | 5 (Level 5: growth control rate is above 85%) |  | 5 (Level 5: growth control rate is above 85%) | 5 (Level 5: growth control rate is above 85%) | 5 (Level 5: growth control rate is above 85%)
CSCC[S@@+]([O-])c1c(C(F)(F)F)ccc(C(=O)Nc2nnc(C)o2)c1F [Compound 204] |  | 5 (Level 5: growth control rate is above 85%) | 5 (Level 5: growth control rate is above 85%) |  | 5 (Level 5: growth control rate is above 85%) | 5 (Level 5: growth control rate is above 85%) | 5 (Level 5: growth control rate is above 85%)
C#CCC[S@@+]([O-])c1c(C(F)(F)F)ccc(C(=O)Nc2nnc(C)o2)c1F [Compound 24] |  | 5 (Level 5: growth control rate is above 85%) | 5 (Level 5: growth control rate is above 85%) |  | 5 (Level 5: growth control rate is above 85%) | 5 (Level 5: growth control rate is above 85%) | 5 (Level 5: growth control rate is above 85%)
COc1c(C(=O)Nc2nnc(C)o2)ccc(C(F)(F)F)c1[S@+]([O-])CC(C)O (some centres unmarked) [Compound 336] |  | 5 (Level 5: growth control rate is above 85%) | 5 (Level 5: growth control rate is above 85%) |  | 5 (Level 5: growth control rate is above 85%) | 5 (Level 5: growth control rate is above 85%) | 5 (Level 5: growth control rate is above 85%)
Cc1nnc(NC(=O)c2ccc(C(F)(F)F)c([S@+]([O-])CCC(C)C)c2F)o1 [Compound 9] |  | 5 (Level 5: growth control rate is above 85%) | 5 (Level 5: growth control rate is above 85%) |  | 5 (Level 5: growth control rate is above 85%) | 5 (Level 5: growth control rate is above 85%) | 5 (Level 5: growth control rate is above 85%)
CC[S+]([O-])c1c(C(F)(F)F)ccc(C(=O)N(c2nnc(C)o2)C(C)OC(=O)OC)c1OC (mixture of isomers) [Compound 421] |  | 5 (Level 5: growth control rate is above 85%) | 5 (Level 5: growth control rate is above 85%) |  | 5 (Level 5: growth control rate is above 85%) | 5 (Level 5: growth control rate is above 85%) | 5 (Level 5: growth control rate is above 85%)
CCOCC[S@@+]([O-])c1c(C(F)(F)F)ccc(C(=O)Nc2nnc(C)o2)c1F [Compound 73] |  | 5 (Level 5: growth control rate is above 85%) | 5 (Level 5: growth control rate is above 85%) |  | 5 (Level 5: growth control rate is above 85%) | 5 (Level 5: growth control rate is above 85%) | 5 (Level 5: growth control rate is above 85%)
CCC[S@@+]([O-])c1c(C(F)(F)F)ccc(C(=O)Nc2nnc(C)o2)c1OC(C)C [Compound 534] |  | 5 (Level 5: growth control rate is above 85%) | 5 (Level 5: growth control rate is above 85%) |  | 5 (Level 5: growth control rate is above 85%) | 5 (Level 5: growth control rate is above 85%) | 5 (Level 5: growth control rate is above 85%)
COC(C)[S+]([O-])c1c(C(F)(F)F)ccc(C(=O)Nc2nnc(C)o2)c1F (centres unmarked) [Compound 71] |  | 5 (Level 5: growth control rate is above 85%) | 5 (Level 5: growth control rate is above 85%) |  | 5 (Level 5: growth control rate is above 85%) | 5 (Level 5: growth control rate is above 85%) | 5 (Level 5: growth control rate is above 85%)
Cc1nnc(NC(=O)c2ccc(C(F)(F)F)c([S@+]([O-])CCOC(F)F)c2F)o1 [Compound 164] |  | 5 (Level 5: growth control rate is above 85%) | 5 (Level 5: growth control rate is above 85%) |  | 5 (Level 5: growth control rate is above 85%) | 5 (Level 5: growth control rate is above 85%) | 5 (Level 5: growth control rate is above 85%)

Reference: patent US12643871B2, “Aryl formamide compound containing chiral sulfur oxide or salt thereof, preparation method, herbicidal composition and use thereof” (Qingdao Kingagroot Chemical Compound Co., Ltd., priority 2019, dated 2026)
